Data on 61 compounds can be found in the METLIN SMRT retention time set (Domingo-Almenara et al. 2019).

The data set in a line: gradient 5% acetonitrile 3 min, to 50% in 2 min, to 85% in 15 min, held 3 min, 100 µL/min. To be noted: column: Zorbax Extend-C18 2.1 x 50 mm; eluents: water / acetonitrile, 0.1% formic acid. In short, it runs like this:
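Values are retention times taken from adduct peaks that software picked and an analyst inspected. The pure standards were run as mixtures of ~100 molecules on HPLC linked to a quadrupole time-of-flight mass spectrometer, in positive and negative ionization mode. A Zorbax Extend-C18 column (2.1 × 50 mm, 1.8 μm) was used at 100 μL/min with water and acetonitrile, each including 0.1% formic acid.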
The compound `O=C(NCc1ccc2c(c1)OCO2)C1CCCN(c2nnc3ccc(Cl)cn23)C1` (stereo unspecified) came in with an RP-LC retention time of 735 s.

Compound `COc1ccc(CNC(=O)C2(C)CCCN(S(=O)(=O)c3ccccc3F)C2)cc1` (stereo unspecified) showed an RP-LC retention time of 900 s.

The compound `CC(C)(C)c1nnc(-c2ccc3c(c2)OCO3)o1` yielded an RP-LC retention time of 900 s.

On to `O=C(Nc1ccc(C2(C(=O)O)CCC2)cc1)C1CC1`, for which the RP-LC retention time came out at 710 s.

For the compound `CCC(C)NC(=O)Cn1nc(Cc2ccncc2)c2ccccc2c1=O` (stereo unspecified), the RP-LC retention time was found to be 572 s.

In turn, `COc1ccc(NC(=O)c2nc(C)oc2C)cc1F` returned an RP-LC retention time of 843 s.

`COCc1nncn1C1CCN(S(=O)(=O)c2ccc(C)cc2C)CC1` returned an RP-LC retention time of 743 s.

Regarding `CN(C)CCCn1c2c3ccccc3ccc2c2oc(=O)c3ccccc3c21`, the RP-LC retention time was determined as 802 s.

For the compound `CCOC(=O)c1ccc(NC(=O)NCC2CCN(Cc3ccc(C)cc3)C2)cc1` (stereo unspecified), the RP-LC retention time was 688 s.

`C[C@@H](NC(=O)c1cccc(Br)c1)C(=O)NCc1cscn1` returned an RP-LC retention time of 665 s.

As for `CCc1ccc(NC(=O)N2C[C@@H](F)C[C@H]2C(=O)N2CCCCC2)cc1`, the RP-LC retention time was found to be 728 s.

Take `CCCc1nnc(-c2cccnc2N2CCN(C(=O)c3ccc4ncccc4c3)CC2)o1`: the RP-LC retention time came to 660 s.

With `Cc1ccc(-c2noc(CN3N=NC4C(=O)N(c5ccc(C)c(Cl)c5)C(=O)C43)n2)cc1` (stereo unspecified), the RP-LC retention time amounted to 1100 s.

In the case of `O=C(C1CCN(c2cnn(Cc3ccccc3)c(=O)c2)C1)N1CCCC1` (stereo unspecified), the RP-LC retention time was found to be 683 s.

The compound `CCc1noc([C@@H]2CC(F)(F)CN2C(=O)c2cnco2)n1` registered an RP-LC retention time of 690 s.

Take `COc1cccc(CNC(=O)CN2C(=O)NC(c3ccccc3Cl)C3=C2COC3=O)c1OC` (stereo unspecified): the RP-LC retention time was 739 s.

Compound `COc1cc(NC(=O)c2cc(C(C)C)n3nccc3n2)cc(OC)c1OC` came in with an RP-LC retention time of 915 s.

For the compound `CCCCNC(=O)c1cnn(-c2ccc(-c3nc(C)no3)cn2)c1C`, the RP-LC retention time turned out to be 853 s.

For the compound `CC1(C)CC2CC(C)(CN2c2nc(-c3ccccc3)nc3ccccc23)C1` (stereo unspecified), the RP-LC retention time is 948 s.

For the compound `Cc1ccc(NC(=O)c2cc(C(C)C)n(C3CCS(=O)(=O)C3)n2)cc1` (stereo unspecified), the RP-LC retention time amounted to 901 s.

For the compound `Cc1cccc(CNC(=O)C2c3ccccc3CC(=O)N2C(C)C)c1` (stereo unspecified), the RP-LC retention time was determined as 825 s.

`CCNC(=O)C1CCN(c2cnn(Cc3ccccc3)c(=O)c2)CC1` gave an RP-LC retention time of 674 s.

Compound `Cc1ccc(C)c(N2CCN(c3ccncc3N)CC2)c1` had an RP-LC retention time of 777 s.

For the compound `CCS(=O)(=O)N1CCCN(c2ccc(=O)n(-c3ccc(C)cc3)n2)CC1`, the RP-LC retention time was 751 s.

`COc1ccc(CCNS(=O)(=O)c2cc3c4c(c2)CCC(=O)N4CCC3)cc1OC`: the RP-LC retention time turned out to be 766 s.

As for `COc1cc(Cc2nc(-c3cccc(-c4ccn[nH]4)c3)no2)cc(OC)c1`, the RP-LC retention time turned out to be 937 s.

`COc1ccccc1N1CCN(c2cc(SCC(=O)NCCC3=CCCCC3)ncn2)CC1` showed an RP-LC retention time of 1080 s.

In turn, `Cc1nc(N2CCCC2)c2c(C(=O)Nc3ccc(C)c(C)c3)c(C)oc2n1` showed an RP-LC retention time of 830 s.

The compound `CCCCN(Cc1ccco1)C(=O)Cn1nc(Cc2cccnc2)c2ccccc2c1=O` showed an RP-LC retention time of 701 s.

For `CNC(=O)CCc1nc2ccccc2n(CC(=O)NCCCc2ccccc2)c1=O`, the RP-LC retention time was 704 s.

Consider `O=C(Nc1ccc(-c2nc3cccnc3s2)cc1)c1ccccc1Cl`, for which the RP-LC retention time stood at 893 s.

As to `COc1ccc(NC(=O)CCS(=O)(=O)Cc2ccccc2)c2ccccc12`, the RP-LC retention time was 688 s.

As to `O=C(c1cc(C2CC2)[nH]n1)N1CCN(c2ccc(N3CCOCC3)nn2)CC1`, the RP-LC retention time was 577 s.

On to `CC(C)CNC(=O)C1Cn2cccc2C(=O)N1CC(C)C` (stereo unspecified), for which the RP-LC retention time came to 750 s.

`COc1ccc(NC(=O)N2C[C@@H]3C[C@H]2C[C@@H]3NS(=O)(=O)c2ccccc2)cc1F` registered an RP-LC retention time of 778 s.

`CCn1cc(-c2nc(-c3ccc(OC)cc3OC)no2)c(=O)c2cc(F)ccc21` registered an RP-LC retention time of 830 s.

For the compound `CCOC(=O)C1CC(C)=C(C)CC1C(=O)O` (stereo unspecified), the RP-LC retention time came out at 854 s.

Take `COc1ccc(Cc2cnc(NC(=O)C3Cc4ccccc4C(=O)O3)s2)cc1` (stereo unspecified): the RP-LC retention time is 819 s.

On to `CCN1C(=O)CCc2c(C)nc(-c3ccc(OC)cc3)nc21`, for which the RP-LC retention time came out at 901 s.

On to `Cc1cc(C(=O)N2CCC3(CCC3O)CC2)no1` (stereo unspecified), for which the RP-LC retention time is 636 s.

`CC1=C(c2ccc(C)cc2)S(=O)(=O)N=C1N1CCCN(C(=O)NC2CCCC2)CC1` gave an RP-LC retention time of 857 s.

For `Cc1ccc(N2CCN(Cc3nc4nc(C)cc(N5CCOCC5)n4n3)CC2)cc1`, the RP-LC retention time is 636 s.

As for `C=C[C@@]1(C)CC(=O)[C@]2(O)[C@@]3(C)[C@H](O)CCC(C)(C)[C@@H]3[C@H](O)[C@H](OC(C)=O)[C@@]2(C)O1`, the RP-LC retention time was found to be 1040 s.

For `O=C([C@@H]1OCC(=O)N(C2CC2)[C@H]1c1ccccc1)N1CCN(c2ccccc2)CC1`, the RP-LC retention time was found to be 834 s.

In turn, `C=CCn1c(SCC(=O)N2CCC(C(N)=O)CC2)nnc1-c1sc2ncccc2c1N` returned an RP-LC retention time of 616 s.

The compound `COc1ccc(-c2ccnc3nc(CC(C)C)nn23)cc1` returned an RP-LC retention time of 905 s.

Consider `COc1ccc(CSc2nc3ccccc3[nH]2)cc1`, for which the RP-LC retention time was found to be 625 s.

Consider `CCCS(=O)(=O)N1CCC(Cc2ccc(COc3ccncc3)cc2)CC1`, for which the RP-LC retention time stood at 701 s.

`CCC(=O)N1CCC2(CC1)NC(=O)c1ccccc1O2` displayed an RP-LC retention time of 649 s.

On to `CC(C)C(=O)Nc1cnc(-c2ccccc2)nc1`, for which the RP-LC retention time amounted to 814 s.

On to `COc1cc(Cl)c(C)cc1-n1ccn(Cc2c(F)cccc2Cl)c(=O)c1=O`, for which the RP-LC retention time stood at 855 s.

For `Cc1c(-c2ccccc2)nc2ccc(Br)cc2c1C(=O)O`, the RP-LC retention time worked out at 698 s.

In turn, `CC(C(=O)O)c1ccc(N2Cc3ccccc3C2=O)cc1` (stereo unspecified) returned an RP-LC retention time of 828 s.

On to `CC(C)n1cnc(S(=O)(=O)N2CCCC(C(=O)Nc3ccccc3)C2)c1` (stereo unspecified), for which the RP-LC retention time was 768 s.

Take `Cc1noc(-c2cccn2Cc2ccccc2Cl)n1`: the RP-LC retention time is 1110 s.

For `O=C(COc1ccccc1)Nc1cnc(-c2cccnc2)nc1`, the RP-LC retention time is 678 s.

Turning to `COc1ccc(-c2noc(-c3ccc(NCc4ccc(C)o4)nc3)n2)cc1`, the RP-LC retention time was 1150 s.

Consider `O=C(Cc1ccccc1F)N1CCc2[nH]cnc2C1c1ccccc1` (stereo unspecified), for which the RP-LC retention time stood at 632 s.

Turning to `CCC(=O)N1CCc2c(C(=O)NCCN3CCc4ccccc4C3)cccc21`, the RP-LC retention time came to 614 s.

Compound `Cc1ccc(NC(=O)Cn2c(N)nc(C)cc2=O)c(C)c1` came in with an RP-LC retention time of 617 s.

On to `Cc1noc(C)c1CNC(=O)CCCc1ccccc1`, for which the RP-LC retention time was found to be 760 s.
